SMILES strings stand for the structures. Read-outs that look alike come from different tables or passages of the source.

The nature of data set [1]: Ligand partition coefficient between polar solvent and hexane. It is filed as physicochemical.
The nature of data set [2]: Kpartition in hydroformylation catalyst mixture extracted with hexane (layers analyzed for rhodium). It counts as physicochemical. Conditions: acetonitrile catalyst solution after 1-dodecene hydroformylation, 74° C, equal volume hexane. The protocol: To this solution was then charged 5 milliliters of 1-dodecene. The solution was stirred and allowed to equilibrate until no increase in pressure was observed. The reactor was then pressurized to 100 psig with H2 :CO (1:1). Pressure was maintained between 100 and 95 psig until no further reaction had occurred. At this point, the catalyst containing solution was discharged from the reactor. 1.5 milliliters of the catalyst solution was transferred to a vial. To this was added 1.5 milliliters of hexane. The mixture was vigorously shaken for several minutes, then allowed to settle and phase separate. The layers were then separated and analyzed for rhodium content.

The nature of data set [3]: Aldehyde partition coefficient between nonpolar and polar solvent.
Experimental: The efficiency of this extraction process can be measured by a partition coefficient Kp of the one or more products which is defined as follows: [formula]
The vial was shaken vigorously, then allowed to settle. An aliquot from both phases was removed and analyzed for aldehyde via GC. Table H indicates the partition coefficient, which was determined by the ratio of the GC area for the aldehydes (sum of n and iso) in the nonpolar phase to the polar phase.
In this case, the aldehyde contained iso-heptadecanal, n-heptadecanal, and a small amount of C16 alkenes and alkanes. Table H indicates the partition coefficient.
Table H indicates the partition coefficient.
Table H indicates partition coefficient.
[4] abbreviates: 3-methyl-2-oxazolidinone/hexane, ambient temperature.
Setting [5] is: DMF/hexane, ambient temperature.
The mark [6] stands for this setting: DMSO/hexane, ambient temperature.
Setting [7] is: acetonitrile/hexane, ambient temperature.
Where [8] appears, read: adiponitrile/hexane, ambient temperature.
Where [9] appears, read: summary table, acetonitrile and hexane.
Setting [10] is: caprolactone/hexane, ambient temperature.
[11] abbreviates: 2,2-dimethylbutane/acetonitrile.

As to `c1ccc(P(c2ccccc2)C2CCCCC2)cc1` [CHDPP, cyclohexyldiphenylphosphine, reference compound], the Kpartition is 1.2 in data set [1] (setting [4]); 2 in data set [1] (setting [5]); 0.5 in data set [1] (setting [6]); 0.5 in data set [1] (setting [7]); 0.4 in data set [1] (setting [8]); 0.4 in data set [1] (setting [9]).
Regarding `N#Cc1ccc(P(c2ccc(C#N)cc2)c2ccc(C#N)cc2)cc1` [Ligand A], the Kpartition is reported as more than 1000 in data set [1] (setting [4]); more than 1000 in data set [1] (setting [5]); more than 1000 in data set [1] (setting [6]); 430 in data set [1] (setting [7]); more than 1000 in data set [1] (setting [8]); more than 1000 in data set [1] (setting [10]). The molecule also displayed a Kpartition in data set [1] (setting [9]) of 430.
As to `N#Cc1cccc(P(c2cccc(C#N)c2)c2cccc(C#N)c2)c1` [Ligand B], the Kpartition in data set [1] (setting [5]) stood at 470; in data set [1] (setting [6]) it was 550; in data set [1] (setting [7]), 470; in data set [1] (setting [10]) it was 960; in data set [1] (setting [9]), 470.
In the case of `O=P(CCP(c1ccccc1)c1ccccc1)(c1ccccc1)c1ccccc1` [Ligand D], the Kpartition in data set [1] (setting [5]) amounted to 60; in data set [1] (setting [6]), 440; in data set [1] (setting [7]), 920; in data set [1] (setting [10]) it was 80; in data set [1] (setting [9]), 920.
On to `O=P(CP(c1ccccc1)c1ccccc1)(c1ccccc1)c1ccccc1` [Ligand E], for which the Kpartition in data set [1] (setting [5]) stood at 50; in data set [1] (setting [6]), 620; in data set [1] (setting [7]), 80; in data set [1] (setting [9]) it was 620.
Turning to `N#CCCP(CCC#N)CCC#N` [Ligand F], the Kpartition in data set [1] (setting [7]) and in data set [1] (setting [9]) was more than 100 in each case.
Consider `COc1ccc(P(c2ccc(OC)cc2)c2ccc(OC)cc2)cc1` [Ligand G], for which the Kpartition in data set [1] (setting [7]) and in data set [1] (setting [9]) was 11 each time.
Consider `CCCCCCCCCCCCCCP(c1ccc(C#N)cc1)c1ccc(C#N)cc1` [Ligand I], for which the Kpartition in data set [1] (setting [7]) and in data set [1] (setting [9]) was 7 each time.
For `OCCCP(c1ccccc1)c1ccccc1` [Ligand J], the Kpartition in data set [1] (setting [7]) and in data set [1] (setting [9]) was 26 throughout.
For `N#CCCP(CCC#N)c1ccccc1` [Ligand L], the Kpartition in data set [1] and in data set [1] (setting [7]) was more than 100 in each case.
Consider `c1ccc(-c2ccccc2Op2oc3ccccc3c3ccccc3o2)c(Op2oc3ccccc3c3ccccc3o2)c1` [Ligand M], for which the Kpartition in data set [1] (setting [7]) and in data set [1] (setting [9]) was 25 throughout.
With `N#Cc1cccc(Op2oc3ccccc3c3ccccc3o2)c1` [Ligand N], the Kpartition in data set [1] (setting [7]) and in data set [1] (setting [9]) was 28 each time.
Turning to `COc1cc(C(C)(C)C)c2op(Oc3ccccc3C#N)oc3c(C(C)(C)C)cc(OC)cc3c2c1` [Ligand O], the Kpartition in data set [1] (setting [7]) and in data set [1] (setting [9]) was 5.2 each time.
On to `N#Cc1ccc(Op2oc3ccccc3c3ccccc3o2)cc1` [Ligand P], for which the Kpartition in data set [1] (setting [7]) and in data set [1] (setting [9]) was 30 throughout.
In the case of `COc1cc(C(C)(C)C)c2op(Oc3ccc([N+](=O)[O-])cc3)oc3c(C(C)(C)C)cc(OC)cc3c2c1` [Ligand Q], the Kpartition in data set [1] (setting [7]) and in data set [1] (setting [9]) was 5.3 each time.
As for `O=[N+]([O-])c1ccc(Op2oc3ccccc3c3ccccc3o2)cc1` [Ligand R], the Kpartition in data set [1] (setting [7]) and in data set [1] (setting [9]) was 22 in each case. Besides, the “Kpartition in catalyst mixture” value in data set [2] was 5.3.
On to `COc1cc(-c2cc(OC)cc(C(C)(C)C)c2Op2oc3ccc(OC)cc3c3cc(OC)ccc3o2)c(Op2oc3ccc(OC)cc3c3cc(OC)ccc3o2)c(C(C)(C)C)c1` [Ligand S], for which the Kpartition entry in data set [1] (setting [7]) is reported as “greater than 100”.
Consider `C1CCC(P(C2CCCCC2)C2CCCCC2)CC1` [TCHP, tricyclohexylphosphine, reference compound], for which the Kpartition was 0.2 in data set [1] (setting [7]) and less than 0.2 in data set [1] (setting [9]).
For the molecule `CCCCCCCCP(CCCCCCCC)CCCCCCCC` [TOP, tri-n-octylphosphine, reference compound], the Kpartition in data set [1] (setting [7]) and in data set [1] (setting [9]) was less than 0.01 each time.
For the molecule `c1ccc(P(c2ccccc2)c2ccccc2)cc1` [TPP, triphenylphosphine, reference compound], the Kpartition in data set [1] (setting [4]) came out at 4.3; in data set [1] (setting [5]), 5.9; in data set [1] (setting [6]) it was 2.3; in data set [1] (setting [7]), 1.3; in data set [1] (setting [8]) it was 0.4; in data set [1] (setting [10]) it was 3. In data set [1] (setting [9]), this molecule returned a Kpartition of 1.3.
On to `CCCCCCCCCCCC=O` [dodecanal], for which the “Kpartition (nonpolar to polar phase)” value in data set [3] (setting [11]) is recorded as 4.6; in data set [3] (heptane/acetonitrile), 4.4.
Turning to `CCCCCCCCCCCCCCCCC=O` [heptadecanal], in data set [3] (hexane/acetonitrile), the “Kpartition (nonpolar to polar phase)” value came out at 5.5.
As to `CCCCCCCCCCCCCCC=O` [pentadecanal], the “Kpartition (nonpolar to polar phase)” value in data set [3] (hexane/acetonitrile) was 6.8.
`CCCCCCCCCCCCC=O` [tridecanal]: the “Kpartition (nonpolar to polar phase)” value in data set [3] (1-dodecene/acetonitrile) is listed as 4.3.
Take `CCCCCCCCCCC=O` [undecanal]: the “Kpartition (nonpolar to polar phase)” value is 2.3 in data set [3] (1-decene/acetonitrile); 3.3 in data set [3] (setting [11]); 2.0 in data set [3] (cyclohexane/acetonitrile); 2.6 in data set [3] (hexane/3-methyl-2-oxazolidinone); 1.9 in data set [3] (nonane/acetonitrile).

(Values after patent publication US5932772A, “Separation processes” (Union Carbide Chemicals & Plastics Technology Corporation, priority 1998, dated 1999).)
